Assay results published in ChEMBL document CHEMBL4507269, “Data for DCP probe BAY-386” (2021).

What was measured:
[1] = molecular target: T1, Muscarinic acetylcholine receptor M4 (Homo sapiens) (UniProt P08173); assay: M4 (h) Eurofins-Cerep Cellular and Nuclear Receptor Functional Assays; conditions: Compound concentration 10.0 uM
T1 sequence (whole entry): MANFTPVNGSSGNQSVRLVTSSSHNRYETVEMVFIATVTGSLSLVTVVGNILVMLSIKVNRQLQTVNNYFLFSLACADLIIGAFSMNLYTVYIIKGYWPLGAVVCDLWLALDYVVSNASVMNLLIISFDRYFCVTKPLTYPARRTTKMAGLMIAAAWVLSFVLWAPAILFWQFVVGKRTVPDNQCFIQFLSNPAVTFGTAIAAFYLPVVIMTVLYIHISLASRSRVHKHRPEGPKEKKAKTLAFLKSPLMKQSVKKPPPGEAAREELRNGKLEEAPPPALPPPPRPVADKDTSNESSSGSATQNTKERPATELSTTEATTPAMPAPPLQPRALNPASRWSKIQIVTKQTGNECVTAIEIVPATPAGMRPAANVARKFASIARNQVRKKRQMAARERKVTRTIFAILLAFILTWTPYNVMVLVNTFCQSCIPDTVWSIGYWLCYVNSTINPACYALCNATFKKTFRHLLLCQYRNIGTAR

[2] = molecular target: 5-hydroxytryptamine receptor 6 (Homo sapiens) (UniProt P50406); assay: 5-HT6 (h) Eurofins-Cerep Cellular and Nuclear Receptor Functional Assays; conditions: Compound concentration 10.0 uM
[3] = molecular target: AP2-associated protein kinase 1 (Homo sapiens) (UniProt Q2M2I8); conditions: Compound concentration 1000.0 nM
[4] = molecular target: Tyrosine-protein kinase ABL1 (Homo sapiens) (UniProt P00519); conditions: Compound concentration 1000.0 nM
[5] = molecular target: Serine/threonine-protein kinase BRSK2 (Homo sapiens) (UniProt Q8IWQ3); conditions: Compound concentration 1000.0 nM
[6] = molecular target: Calcium/calmodulin-dependent protein kinase kinase 2 (Homo sapiens) (UniProt Q96RR4); conditions: Compound concentration 1000.0 nM
[7] = molecular target: Cyclin-dependent kinase 4 (Homo sapiens) (UniProt P11802); conditions: Compound concentration 1000.0 nM
[8] = molecular target: Macrophage colony-stimulating factor 1 receptor (Homo sapiens) (UniProt P07333); conditions: Compound concentration 1000.0 nM
[9] = molecular target: Eukaryotic translation initiation factor 2-alpha kinase 1 (Homo sapiens) (UniProt Q9BQI3); conditions: Compound concentration 1000.0 nM
[10] = molecular target: Ephrin type-B receptor 2 (Homo sapiens) (UniProt P29323); conditions: Compound concentration 1000.0 nM
[11] = molecular target: Focal adhesion kinase 1 (Homo sapiens) (UniProt Q05397); conditions: Compound concentration 1000.0 nM
[12] = test system: Receptor-type tyrosine-protein kinase FLT3 (Homo sapiens), P36888 [K663Q]; conditions: Compound concentration 1000.0 nM
[13] = test system: Receptor-type tyrosine-protein kinase FLT3 (Homo sapiens), P36888 [N841I]; conditions: Compound concentration 1000.0 nM
[14] = molecular target: Tyrosine-protein kinase FRK (Homo sapiens) (UniProt P42685); conditions: Compound concentration 1000.0 nM
[15] = molecular target: Cyclin-G-associated kinase (Homo sapiens) (UniProt O14976); conditions: Compound concentration 1000.0 nM
[16] = test system: Mast/stem cell growth factor receptor Kit (Homo sapiens), P10721 [V559D,V654A]; conditions: Compound concentration 1000.0 nM
[17] = molecular target: Tyrosine-protein kinase Lyn (Homo sapiens) (UniProt P07948); conditions: Compound concentration 1000.0 nM
[18] = molecular target: Microtubule-associated serine/threonine-protein kinase 1 (Homo sapiens) (UniProt Q9Y2H9); conditions: Compound concentration 1000.0 nM
[19] = molecular target: Myosin light chain kinase (Homo sapiens) (UniProt Q32MK0); conditions: Compound concentration 1000.0 nM
[20] = molecular target: Serine/threonine-protein kinase MRCK beta (Homo sapiens) (UniProt Q9Y5S2); conditions: Compound concentration 1000.0 nM
[21] = molecular target: Myosin light chain kinase 2, skeletal/cardiac muscle (Homo sapiens) (UniProt Q9H1R3); conditions: Compound concentration 1000.0 nM
[22] = molecular target: Mitogen-activated protein kinase 13 (Homo sapiens) (UniProt O15264); conditions: Compound concentration 1000.0 nM
[23] = molecular target: Serine/threonine-protein kinase PAK 2 (Homo sapiens) (UniProt Q13177); conditions: Compound concentration 1000.0 nM
[24] = molecular target: Serine/threonine-protein kinase PAK 5 (Homo sapiens) (UniProt Q9P286); conditions: Compound concentration 1000.0 nM
[25] = molecular target: Cyclin-dependent kinase 16 (Homo sapiens) (UniProt Q00536); conditions: Compound concentration 1000.0 nM
[26] = molecular target: Cyclin-dependent kinase 2 homolog (Plasmodium falciparum (isolate 3D7)) (UniProt P61075); conditions: Compound concentration 1000.0 nM
[27] = test system: Phosphatidylinositol 4,5-bisphosphate 3-kinase catalytic subunit alpha isoform (Homo sapiens), P42336 [C420R]; conditions: Compound concentration 1000.0 nM
[28] = test system: Phosphatidylinositol 4,5-bisphosphate 3-kinase catalytic subunit alpha isoform (Homo sapiens), P42336 [H1047Y]; conditions: Compound concentration 1000.0 nM
[29] = molecular target: Phosphatidylinositol 5-phosphate 4-kinase type-2 beta (Homo sapiens) (UniProt P78356); conditions: Compound concentration 1000.0 nM
[30] = molecular target: Serine/threonine-protein kinase N1 (Homo sapiens) (UniProt Q16512); conditions: Compound concentration 1000.0 nM
[31] = molecular target: cAMP-dependent protein kinase catalytic subunit PRKX (Homo sapiens) (UniProt P51817); conditions: Compound concentration 1000.0 nM
[32] = test system: Proto-oncogene tyrosine-protein kinase receptor Ret (Homo sapiens), P07949 [V804L]; conditions: Compound concentration 1000.0 nM
[33] = molecular target: Receptor-interacting serine/threonine-protein kinase 2 (Homo sapiens) (UniProt O43353); conditions: Compound concentration 1000.0 nM
[34] = molecular target: Serine/threonine-protein kinase SIK1 (Homo sapiens) (UniProt P57059); conditions: Compound concentration 1000.0 nM
[35] = molecular target: SNF-related serine/threonine-protein kinase (Homo sapiens) (UniProt Q9NRH2); conditions: Compound concentration 1000.0 nM
[36] = molecular target: Serine/threonine-protein kinase TAO2 (Homo sapiens) (UniProt Q9UL54); conditions: Compound concentration 1000.0 nM
[37] = molecular target: Histamine H3 receptor (Homo sapiens) (UniProt Q9Y5N1); conditions: Compound concentration 10.0 uM

Chain of 5-hydroxytryptamine receptor 6 (Homo sapiens) (P50406 whole entry): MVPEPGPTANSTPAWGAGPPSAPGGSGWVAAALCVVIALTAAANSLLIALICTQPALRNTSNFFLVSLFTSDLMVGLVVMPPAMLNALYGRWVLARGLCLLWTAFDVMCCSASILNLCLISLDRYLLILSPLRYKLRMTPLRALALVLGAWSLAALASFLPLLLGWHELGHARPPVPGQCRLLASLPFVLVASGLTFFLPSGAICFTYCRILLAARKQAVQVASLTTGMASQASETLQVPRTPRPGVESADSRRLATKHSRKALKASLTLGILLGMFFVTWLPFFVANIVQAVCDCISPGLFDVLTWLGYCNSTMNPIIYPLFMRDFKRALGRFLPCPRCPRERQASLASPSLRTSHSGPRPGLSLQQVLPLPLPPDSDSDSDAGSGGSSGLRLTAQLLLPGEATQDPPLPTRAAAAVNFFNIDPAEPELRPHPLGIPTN
Chain of Serine/threonine-protein kinase PAK 2 (Homo sapiens) (Q13177 whole entry): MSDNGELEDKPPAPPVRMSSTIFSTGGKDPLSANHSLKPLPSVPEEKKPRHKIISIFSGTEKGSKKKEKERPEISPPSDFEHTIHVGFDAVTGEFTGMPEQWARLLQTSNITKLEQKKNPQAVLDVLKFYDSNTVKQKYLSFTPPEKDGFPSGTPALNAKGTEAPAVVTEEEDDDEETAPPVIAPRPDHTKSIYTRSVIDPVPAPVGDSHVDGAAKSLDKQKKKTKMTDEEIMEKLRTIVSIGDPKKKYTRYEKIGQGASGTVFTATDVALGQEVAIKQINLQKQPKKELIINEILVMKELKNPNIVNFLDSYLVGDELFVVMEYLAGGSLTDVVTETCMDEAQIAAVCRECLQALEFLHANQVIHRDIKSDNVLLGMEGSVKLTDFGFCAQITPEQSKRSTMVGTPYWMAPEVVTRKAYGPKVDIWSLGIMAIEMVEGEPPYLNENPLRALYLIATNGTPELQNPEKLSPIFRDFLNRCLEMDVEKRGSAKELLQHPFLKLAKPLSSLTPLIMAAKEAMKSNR
Chain of Serine/threonine-protein kinase SIK1 (Homo sapiens) (P57059 whole entry): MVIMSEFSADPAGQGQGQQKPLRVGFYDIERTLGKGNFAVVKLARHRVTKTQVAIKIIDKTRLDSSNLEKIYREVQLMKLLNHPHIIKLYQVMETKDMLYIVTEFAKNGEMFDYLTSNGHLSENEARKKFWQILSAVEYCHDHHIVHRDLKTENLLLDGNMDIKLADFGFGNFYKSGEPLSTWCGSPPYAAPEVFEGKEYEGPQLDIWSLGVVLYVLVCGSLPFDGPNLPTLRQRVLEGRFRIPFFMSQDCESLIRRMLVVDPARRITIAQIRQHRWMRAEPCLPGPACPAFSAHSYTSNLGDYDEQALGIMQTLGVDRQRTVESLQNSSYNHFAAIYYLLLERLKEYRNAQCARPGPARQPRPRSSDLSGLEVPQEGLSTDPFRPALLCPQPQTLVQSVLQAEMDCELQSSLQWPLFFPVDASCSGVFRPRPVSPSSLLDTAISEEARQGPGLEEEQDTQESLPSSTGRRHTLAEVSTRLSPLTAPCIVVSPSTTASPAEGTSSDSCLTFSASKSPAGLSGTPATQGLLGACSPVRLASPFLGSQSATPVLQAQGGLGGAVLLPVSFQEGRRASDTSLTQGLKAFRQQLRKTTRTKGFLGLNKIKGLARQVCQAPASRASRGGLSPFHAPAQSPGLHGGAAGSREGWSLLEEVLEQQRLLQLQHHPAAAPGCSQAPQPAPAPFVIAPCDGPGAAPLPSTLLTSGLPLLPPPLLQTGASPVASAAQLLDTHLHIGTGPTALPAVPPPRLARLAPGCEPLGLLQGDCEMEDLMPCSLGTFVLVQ
Chain of Cyclin-G-associated kinase (Homo sapiens) (O14976 whole entry): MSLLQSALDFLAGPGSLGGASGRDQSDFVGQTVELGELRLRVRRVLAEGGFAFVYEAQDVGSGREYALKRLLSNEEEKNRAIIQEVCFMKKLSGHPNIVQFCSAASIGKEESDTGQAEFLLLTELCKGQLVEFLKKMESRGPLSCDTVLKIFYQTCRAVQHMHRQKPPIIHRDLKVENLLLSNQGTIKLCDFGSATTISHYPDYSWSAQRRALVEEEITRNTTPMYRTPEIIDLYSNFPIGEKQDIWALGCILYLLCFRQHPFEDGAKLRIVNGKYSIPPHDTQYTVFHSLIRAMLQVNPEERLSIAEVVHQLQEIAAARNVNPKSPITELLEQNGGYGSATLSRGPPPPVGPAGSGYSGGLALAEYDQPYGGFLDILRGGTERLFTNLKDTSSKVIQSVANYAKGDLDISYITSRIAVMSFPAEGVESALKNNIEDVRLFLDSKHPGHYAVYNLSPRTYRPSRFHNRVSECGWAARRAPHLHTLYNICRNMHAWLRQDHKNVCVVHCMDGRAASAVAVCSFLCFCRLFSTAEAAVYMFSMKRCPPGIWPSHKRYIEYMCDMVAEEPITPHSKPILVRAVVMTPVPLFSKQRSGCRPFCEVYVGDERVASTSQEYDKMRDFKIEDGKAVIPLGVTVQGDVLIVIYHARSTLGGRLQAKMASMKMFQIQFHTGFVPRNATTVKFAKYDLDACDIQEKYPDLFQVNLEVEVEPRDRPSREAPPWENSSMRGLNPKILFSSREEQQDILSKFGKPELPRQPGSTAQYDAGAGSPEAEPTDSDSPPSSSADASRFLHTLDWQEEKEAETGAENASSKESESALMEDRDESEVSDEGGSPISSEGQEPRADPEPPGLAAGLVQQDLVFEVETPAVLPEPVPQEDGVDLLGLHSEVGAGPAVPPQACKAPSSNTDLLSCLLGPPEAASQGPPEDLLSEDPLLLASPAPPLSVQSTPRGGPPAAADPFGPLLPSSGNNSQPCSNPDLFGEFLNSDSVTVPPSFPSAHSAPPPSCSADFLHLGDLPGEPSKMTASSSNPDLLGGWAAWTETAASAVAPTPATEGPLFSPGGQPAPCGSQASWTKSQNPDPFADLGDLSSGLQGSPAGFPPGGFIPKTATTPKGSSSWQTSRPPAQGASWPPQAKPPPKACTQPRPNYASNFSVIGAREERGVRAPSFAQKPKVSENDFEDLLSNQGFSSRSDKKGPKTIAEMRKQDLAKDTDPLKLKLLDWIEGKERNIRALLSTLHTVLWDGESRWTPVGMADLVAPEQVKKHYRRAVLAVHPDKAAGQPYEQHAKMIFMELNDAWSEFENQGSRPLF
Chain of SNF-related serine/threonine-protein kinase (Homo sapiens) (Q9NRH2 whole entry): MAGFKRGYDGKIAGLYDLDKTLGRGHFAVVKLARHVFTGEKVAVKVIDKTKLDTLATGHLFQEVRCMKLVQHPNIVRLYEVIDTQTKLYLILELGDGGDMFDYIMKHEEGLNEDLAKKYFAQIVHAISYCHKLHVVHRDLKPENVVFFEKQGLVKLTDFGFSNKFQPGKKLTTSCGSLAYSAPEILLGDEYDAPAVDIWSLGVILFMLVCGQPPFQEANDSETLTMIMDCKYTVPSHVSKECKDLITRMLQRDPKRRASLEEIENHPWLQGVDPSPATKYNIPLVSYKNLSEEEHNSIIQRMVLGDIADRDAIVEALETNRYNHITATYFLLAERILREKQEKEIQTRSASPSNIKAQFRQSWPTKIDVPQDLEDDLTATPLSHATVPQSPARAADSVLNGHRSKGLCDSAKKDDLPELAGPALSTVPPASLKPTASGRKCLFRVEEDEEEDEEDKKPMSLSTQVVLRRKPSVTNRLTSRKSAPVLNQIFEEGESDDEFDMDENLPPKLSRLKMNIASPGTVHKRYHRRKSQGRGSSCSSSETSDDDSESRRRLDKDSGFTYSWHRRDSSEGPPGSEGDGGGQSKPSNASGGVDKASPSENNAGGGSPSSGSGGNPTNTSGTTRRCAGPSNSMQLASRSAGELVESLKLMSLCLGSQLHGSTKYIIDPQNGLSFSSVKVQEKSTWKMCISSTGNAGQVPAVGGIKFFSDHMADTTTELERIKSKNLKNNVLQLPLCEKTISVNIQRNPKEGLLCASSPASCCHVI
Chain of Cyclin-dependent kinase 4 (Homo sapiens) (P11802 whole entry): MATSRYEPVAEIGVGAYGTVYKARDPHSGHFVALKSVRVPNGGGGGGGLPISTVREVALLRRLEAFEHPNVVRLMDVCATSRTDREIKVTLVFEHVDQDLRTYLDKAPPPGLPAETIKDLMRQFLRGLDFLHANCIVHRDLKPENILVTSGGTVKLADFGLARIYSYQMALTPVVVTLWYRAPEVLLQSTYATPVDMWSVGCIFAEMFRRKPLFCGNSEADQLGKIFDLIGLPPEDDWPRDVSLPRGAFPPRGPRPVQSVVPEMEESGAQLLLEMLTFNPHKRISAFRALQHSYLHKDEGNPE
Chain of Tyrosine-protein kinase FRK (Homo sapiens) (P42685 whole entry): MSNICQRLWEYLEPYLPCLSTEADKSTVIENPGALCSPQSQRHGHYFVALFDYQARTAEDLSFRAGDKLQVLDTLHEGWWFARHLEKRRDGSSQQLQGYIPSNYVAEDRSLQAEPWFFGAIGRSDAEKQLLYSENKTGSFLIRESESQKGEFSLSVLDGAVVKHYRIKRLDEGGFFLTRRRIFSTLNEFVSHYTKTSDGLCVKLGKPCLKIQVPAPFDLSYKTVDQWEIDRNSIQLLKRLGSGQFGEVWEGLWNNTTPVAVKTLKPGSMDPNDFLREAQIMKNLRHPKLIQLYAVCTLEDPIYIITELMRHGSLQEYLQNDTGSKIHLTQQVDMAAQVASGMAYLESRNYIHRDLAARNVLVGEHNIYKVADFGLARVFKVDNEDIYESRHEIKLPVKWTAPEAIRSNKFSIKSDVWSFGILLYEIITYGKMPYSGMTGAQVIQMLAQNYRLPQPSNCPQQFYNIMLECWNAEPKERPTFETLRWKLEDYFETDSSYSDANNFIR
Chain of Mitogen-activated protein kinase 13 (Homo sapiens) (O15264 whole entry): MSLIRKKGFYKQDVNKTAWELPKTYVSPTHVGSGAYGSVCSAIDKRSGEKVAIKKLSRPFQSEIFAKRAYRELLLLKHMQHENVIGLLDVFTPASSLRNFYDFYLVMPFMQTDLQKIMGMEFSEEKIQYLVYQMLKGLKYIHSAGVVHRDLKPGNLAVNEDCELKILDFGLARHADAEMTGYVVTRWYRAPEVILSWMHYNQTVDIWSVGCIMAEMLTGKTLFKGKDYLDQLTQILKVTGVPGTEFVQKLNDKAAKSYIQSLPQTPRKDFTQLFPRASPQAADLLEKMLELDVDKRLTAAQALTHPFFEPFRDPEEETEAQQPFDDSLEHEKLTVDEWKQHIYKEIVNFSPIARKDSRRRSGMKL

Cc1noc([C@H]2C[C@@H](c3ccc(C(F)(F)F)cc3)CN(C(=O)N3CCS(=O)(=O)C3)C2)n1 [BAY-448]
2.1%: % Inhibition of Control Agonist Response (Mean n=2) [2]
1.4%: % of Control Agonist Response (Mean n=2) [2]
inactive: residual activity [3] 100% | residual activity [4] 71% | residual activity [5] 100% | residual activity [6] 100% | residual activity [7] 100% | residual activity [8] 100% | residual activity [9] 100% | residual activity [10] 100% | residual activity [11] 100% | residual activity [12] 100% | residual activity [13] 100% | residual activity [14] 100% | residual activity [15] 97% | residual activity [16] 100% | residual activity [17] 100% | residual activity [18] 100% | residual activity [19] 100% | residual activity [20] 100% | residual activity [21] 100% | residual activity [22] 100% | residual activity [23] 87% | residual activity [24] 100% | residual activity [25] 100% | residual activity [26] 80% | residual activity [27] 84% | residual activity [28] 95% | residual activity [29] 100% | residual activity [30] 100% | residual activity [31] 100% | residual activity [32] 100% | residual activity [33] 100% | residual activity [34] 100% | residual activity [35] 100% | residual activity [36] 76% | inhibition [37] 5.78%
25.1%: % of Control Agonist Response (Mean n=2) [1]
1.9%: % Inhibition of Control Agonist Response (Mean n=2) [1]

O=C(N1CCS(=O)(=O)CC1)N1C[C@H](c2ccc(OC(F)(F)F)cc2)C[C@H](c2nc(C3CC3)no2)C1 [BAY-386]
inactive: residual activity [3] 99% | residual activity [4] 84% | residual activity [5] 100% | residual activity [6] 100% | residual activity [7] 96% | residual activity [8] 100% | residual activity [9] 90% | residual activity [10] 100% | residual activity [11] 93% | residual activity [12] 100% | residual activity [13] 100% | residual activity [14] 100% | residual activity [15] 100% | residual activity [16] 100% | residual activity [17] 85% | residual activity [18] 100% | residual activity [19] 79% | residual activity [20] 100% | residual activity [21] 100% | residual activity [22] 100% | residual activity [23] 90% | residual activity [24] 100% | residual activity [25] 100% | residual activity [26] 100% | residual activity [27] 100% | residual activity [28] 100% | residual activity [29] 73% | residual activity [30] 100% | residual activity [31] 100% | residual activity [32] 99% | residual activity [33] 90% | residual activity [34] 99% | residual activity [35] 93% | residual activity [36] 100% | inhibition [37] -6.71%
5.8%: % Inhibition of Control Agonist Response (Mean n=2) [1]
2.8%: % of Control Agonist Response (Mean n=2) [2]
21.1%: % Inhibition of Control Agonist Response (Mean n=2) [2]
-15%: % of Control Agonist Response (Mean n=2) [1]
